Data from US20230201217A1 (priority 2019, published 2023).
“And” between values parts separate entries of the source, which are not always exact repeats. Equal entries are not always repeated.

Legend:
[1] = test system: dopamine release in the nucleus accumbens shell; details: 40 mg/kg pretreatment, 19 hours beforehand; cited from earlier work
[2] = test system: rats trained to self-administer cocaine; details: 10-40 mg/kg i.p., cited from earlier work
male Sprague Dawley rats = experiment: Modified Irwin test, definitive GLP study, male rats; format: in vivo, rat
Experimental: Only male rats were utilized in the assay, as no significant sex-specific effects have been noted in prior toxicology studies.
The dose volume for all groups was 20 mL/kg. Observations for the Irwin test were performed pre-dose (on the day of dosing) and at approximately (±5 minutes) 30, 90, 150, and 240 minutes post-dosing. Body temperature was measured and recorded during each Irwin observation period.

[3] = test system: rats trained to self-administer cocaine; experiment: Rat cocaine self-administration, oral 18-MC HCl; details: for inhibition of cocaine self-administration: 1 hour post-dose
Experimental: The relationship between in vivo efficacy and plasma drug exposure was investigated in rats trained to self-administer cocaine. […] Blood samples were collected immediately after the one hour session in the operant chamber from the arterial catheter. […] Significant differences from vehicle-treated animals were either p<0.01 (indicated as **) or p<0.05 (indicated as *).
Significant difference from vehicle-treated group (0 mg/kg on X axis) was p<0.01 (indicated as **) by one-way ANOVA.
Significant difference from baseline responding was p<0.01 (as indicated by **). […] Blood samples were collected from animals immediately after their cocaine self-administration at approximately 2 hours post dose in the first day of dosing (Day 0), and the last day of dosing (Day 4).

monkeys = experiment: Single-dose oral toxicity; format: in vivo, monkey
Experimental: (§1) Single doses up to 300-400 mg/kg and 800 mg/kg appeared to be generally well tolerated in monkeys and rats, respectively (one monkey treated with 400 mg/kg died in the 2-week GLP study on Day 1 of dosing). […] In mice, mortality was consistently seen following single doses 150 mg/kg. Preliminary 5-day repeat-dose range-finding studies were conducted in mice, rats and monkeys. The definitive 14-day studies in mouse and monkey yielded generally similar results to those observed in the 5-day studies.

male cynomolgus monkeys = experiment: Cardiovascular and respiratory radiotelemetry in conscious cynomolgus monkeys; format: in vivo, cynomolgus monkey
Experimental: Clinical observations were performed at approximately 4 and 24 hours post-dosing.

mice = experiment: Single-dose oral toxicity; format: in vivo, mouse
Experimental: as §1

rats = experiment: Single-dose oral toxicity; format: in vivo, rat
Experimental: as §1

[4] = Toxicokinetics, 14-day study in cynomolgus monkeys; format: in vivo, cynomolgus monkey
Experimental: The animals received 400 mg/kg on Day 1 and thereafter 300 mg/kg/day. The relative concentrations of the metabolites and 18-MC were determined by the peak-heights by UPLC/MS/MS method. Major metabolites were identified as M5>>M2>>P2. Metabolite M4 was on the borderline to be considered a major metabolite. The parent 18-MC exposure was less than 3% of the total drug and metabolite exposure.
Assessments of neurobehavioral effects and general toxicity were based on mortality, functional observational battery (FOB) evaluations, clinical observations, body weight, and body temperature; ophthalmoscopic, electrocardiographic examinations; and anatomic and clinical pathology. The anatomical pathology evaluations included histopathology of a full list of tissues from all animals and a comprehensive evaluation of the central nervous system (including selected peripheral nerves) utilizing whole body perfusion and special stains. Bone marrow smears from all animals were evaluated microscopically. Complete differentials and myeloid-erythroid (ME) ratios were performed. Toxicokinetic assessment was conducted for the test article and metabolites.
Systemic exposure to […] was independent of sex. […] The following discussion is therefore based on data for males and females combined.

[5] = Phase 1 first-in-human study, pharmacokinetics in plasma
Experimental: Fourteen normal, healthy volunteers were enrolled in the study. Seven volunteers were treated in the first cohort (3 placebo, 4 received a single dose of 20 mg of 18-MC) and seven in the second cohort (2 placebo, 5 received 8 mg as 4 mg doses of 18-MC administered at 0 and plus 10 hours). For Cohort A, volunteers were monitored in a hospital unit for 2 days (36 hours) days, and were followed up for safety at Days 3, 7 and 30. For Cohort B, volunteers were monitored in a hospital unit for 2 days (36 hours), and were followed up for safety at Days 3, 4, 7 and 30.
This study was designed as a randomized, double-blind, placebo-controlled, single-center Phase 1 first-in-human clinical trial. After screening, volunteers were admitted to the hospital for 36 hours. […] Study article was initiated on Day 1 and volunteers were discharged on Day 2. Cohort A were seen as outpatients on Days 3, 7 and 30. Cohort B were seen as outpatients on Days 3, 4, 7 and 30. 14 subjects were in the study, 5 male and 9 female.
For Cohort A, pharmacokinetic samples were obtained at baseline and at 0.5, 1.0, 2.0, 6.0, 12.0, 24, 36 hours, and 7 days post dose.
Samples underwent two analyses: A research assay (LG/MS/TOF) developed by MicroConstants, Inc., was used to collect the raw data. The first analysis was to quantitate 18-MG and the known metabolites M2, M4 and M5 (using standard curves included in the run). The second analysis compared the peak heights of 18-MG and all the metabolites that could be identified in terms of relative peak height (M1 through M10, and P1-P3).

[6] = test system: 64 neurotransmitter-related binding sites; experiment: In vitro radio-ligand receptor and enzyme assays (panel); details: 100 nM
Experimental: The binding potential of 18-MC with 64 neurotransmitter-related binding sites was evaluated (TABLE 2).

plasma protein [7] = experiment: Plasma protein binding; format: in vitro ADME, Rat
From the text: (§2) There is no information on the protein binding of any of the metabolites.

plasma protein [8] = experiment: Plasma protein binding; format: in vitro ADME, Dog
From the text: as §2

CYP2C8 = CYP2C8 (Homo sapiens, UniProt P10632); details: recombinant enzyme
Sequence of CYP2C8 (P10632 whole entry): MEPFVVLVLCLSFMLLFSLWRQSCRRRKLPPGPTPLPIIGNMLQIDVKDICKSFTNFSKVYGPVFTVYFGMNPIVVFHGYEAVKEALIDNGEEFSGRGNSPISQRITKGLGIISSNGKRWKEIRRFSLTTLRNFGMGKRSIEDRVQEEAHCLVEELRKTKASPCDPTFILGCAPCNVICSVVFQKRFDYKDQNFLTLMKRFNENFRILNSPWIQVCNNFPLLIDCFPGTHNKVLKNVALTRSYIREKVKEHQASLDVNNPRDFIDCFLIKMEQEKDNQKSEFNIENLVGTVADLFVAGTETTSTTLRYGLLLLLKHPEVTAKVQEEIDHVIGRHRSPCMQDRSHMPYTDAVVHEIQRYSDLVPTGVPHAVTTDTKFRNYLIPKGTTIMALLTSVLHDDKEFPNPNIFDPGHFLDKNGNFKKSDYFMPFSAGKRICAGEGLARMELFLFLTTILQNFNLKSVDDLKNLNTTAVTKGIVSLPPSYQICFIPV
Experimental: (§3) Control incubations were performed for each assay with appropriate positive inhibitory controls.

plasma protein [9] = experiment: Plasma protein binding; format: in vitro ADME, Human
From the text: as §2

[10] = Plasma 18-MC concentration in rats, 5-day dosing self-administration study
Experimental: Blood samples were collected from animals immediately after their cocaine self-administration at approximately 2 hours post dose in the first day of dosing (Day 0), and the last day of dosing (Day 4).

CYP2D6 = CYP2D6 (Homo sapiens, UniProt P10635); details: recombinant enzyme
Sequence of CYP2D6 (P10635 whole entry): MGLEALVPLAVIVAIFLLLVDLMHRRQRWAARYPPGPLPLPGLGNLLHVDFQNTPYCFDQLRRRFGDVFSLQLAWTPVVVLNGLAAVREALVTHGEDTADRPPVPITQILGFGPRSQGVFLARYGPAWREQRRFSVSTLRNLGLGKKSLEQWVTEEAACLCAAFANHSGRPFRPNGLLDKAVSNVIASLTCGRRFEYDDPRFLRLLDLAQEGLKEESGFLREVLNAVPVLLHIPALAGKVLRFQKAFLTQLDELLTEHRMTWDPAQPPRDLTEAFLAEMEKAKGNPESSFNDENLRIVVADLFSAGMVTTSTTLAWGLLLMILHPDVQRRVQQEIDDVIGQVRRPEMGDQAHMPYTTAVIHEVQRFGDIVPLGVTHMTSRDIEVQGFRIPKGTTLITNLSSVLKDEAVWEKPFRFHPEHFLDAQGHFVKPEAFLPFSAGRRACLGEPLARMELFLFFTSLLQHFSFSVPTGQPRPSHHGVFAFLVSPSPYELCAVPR
Experimental: as §3

[11] = cohort B, 4 mg PO at 0 and +10 hours
[12] = Dose Day 0, post dose (~2 h), 600 mg/kg/day

SMILES: COCCC1CC2CN3CCc4c([nH]c5ccccc45)C(C(=O)OC)(C2)C13.Cl (stereo not shown) [18-MC HCl, 18-Methoxycoronaridine hydrochloride]
- acute dopamine response to cocaine [1]: little effect
- sensitized dopamine response to cocaine [1]: abolished the sensitized dopamine response
- responding for cocaine ([2]; 15 minutes prior to session): significantly decreased
- responding for water [2]: no effect
- Irwin: Increased pupil diameter, occurrence(s)/No. of males (male Sprague Dawley rats; 200 mg/kg): 1/6
- Irwin: Increased touch response, occurrence(s)/No. of males (male Sprague Dawley rats; 200 mg/kg): 1/6
- mean decrease in body temperature from pre-dose (male Sprague Dawley rats; 200 mg/kg p.o.): up to 1.5 °C
- Irwin: Abnormal gait (walking low on limbs), occurrence(s)/No. of males (male Sprague Dawley rats; 400 mg/kg): 1/6
- Irwin: Decreased alertness, occurrence(s)/No. of males (observation period, min) (male Sprague Dawley rats; 400 mg/kg): 1/6
- Irwin: Increased pupil diameter, occurrence(s)/No. of males (male Sprague Dawley rats; 400 mg/kg): 1/6
- mean decrease in body temperature from pre-dose (male Sprague Dawley rats; 400 mg/kg p.o.): ≤ 2.3 °C
- Irwin: Abnormal gait (walking low on limbs), occurrence(s)/No. of males (male Sprague Dawley rats; 600 mg/kg): 1/6
- Irwin: Diarrhea, occurrence(s)/No. of males (male Sprague Dawley rats; 600 mg/kg): 1/6
- mean decrease in body temperature from pre-dose (male Sprague Dawley rats; 600 mg/kg p.o.): ≤ 2.3 °C
- Irwin: Abnormal gait (waddling), occurrence(s)/No. of males (observation period, min) (male Sprague Dawley rats; 600 mg/kg, hydrochloride): 1/6 and 2/6 and 3/6 and 4/6
- inhibition of cocaine self-administration ([3]; 120 mg/kg p.o.): 50%
- inhibition of cocaine self-administration on repeated dosing ([3]; 600 mg/kg/day, 5 consecutive days): did not result in greater inhibition
- inhibition of cocaine self-administration ([3]; 800 mg/kg p.o.): 82%
- single dose generally well tolerated (monkeys): 300 to 400 mg/kg
- cardiovascular parameters, body temperature, respiratory parameters (male cynomolgus monkeys; 30, 90, or 270 mg/kg single dose): did not affect
- NOEL on the cardiovascular and respiratory systems (male cynomolgus monkeys; single dose, highest dose tested): 270 mg/kg
- single doses with mortality consistently seen (mice): 150 mg/kg
- single dose generally well tolerated (rats): ≤ 800 mg/kg

SMILES: COCC[C@H]1CC2CN3CCc4c([nH]c5ccccc45)[C@](C(=O)OC)(C2)[C@H]13 [18-MC, 18-methoxycoronaridine]
- AUC ([4]; Day 14, 300 mg/kg 18-MC HCl): 1210 ng·h/mL
- Cmax ([4]; Day 14, 300 mg/kg 18-MC HCl): 144 ng/mL
- AUC(0-24) ([4]; Day 14, 400 mg/kg 1 day then 300 mg/kg/day, averaged across the sexes): 144000 ng·h/mL
- time of median peak plasma concentration ([4]; all dose groups, Days 1 and 14): ≤ 1 h
- elimination half-life ([5]; 4 mg at 0 and +10 hours (8 mg total), longer sampling interval): about 48 hours
- Tmax ([5]; cohort A or B, generally): ½
- AUCall, Average ([5]; cohort A, 20 mg PO single dose): 339 ng·h/mL
- AUCall, Max ([5]; cohort A, 20 mg PO single dose): 447 ng·h/mL
- AUCall, Min ([5]; cohort A, 20 mg PO single dose): 241 ng·h/mL
- Cmax, Average ([5]; cohort A, 20 mg PO single dose): 119 ng/mL
- Cmax, Max ([5]; cohort A, 20 mg PO single dose): 182 ng/mL
- Cmax, Min ([5]; cohort A, 20 mg PO single dose): 92 ng/mL
- Half-Life, Average ([5]; cohort A, 20 mg PO single dose): 17.9 h
- Half-Life, Max ([5]; cohort A, 20 mg PO single dose): 21.7 h
- Half-Life, Min ([5]; cohort A, 20 mg PO single dose): 14.2 h
- Tmax, Average ([5]; cohort A, 20 mg PO single dose): 0.5 h
- Tmax, Max ([5]; cohort A, 20 mg PO single dose): 0.5 h
- Tmax, Min ([5]; cohort A, 20 mg PO single dose): 0.5 h
- AUCall, Average [5, 11]: 195 ng·h/mL
- AUCall, Max [5, 11]: 400 ng·h/mL
- AUCall, Min [5, 11]: 124 ng·h/mL
- Cmax, Max [5, 11]: 46 ng/mL
- Cmax, Min [5, 11]: 20 ng/mL
- Half-Life, Average [5, 11]: 16.9 h
- Half-Life, Max [5, 11]: 52.2 h
- Half-Life, Min [5, 11]: 3.0 h
- Tmax, Average [5, 11]: 2.55 h
- Tmax, Max [5, 11]: 10.25 h
- Tmax, Min [5, 11]: 0.5 h
- binding activity [6]: no binding activity
- % Bound Mean ± SD (plasma protein [7]; 200 ng/mL): 92.9 ± 0.351%
- % Bound Mean ± SD (plasma protein [7]; 600 ng/mL): 94.9 ± 0.794%
- % Bound Mean ± SD (plasma protein [7]; 5,000 ng/mL): 90.2 ± 0.153%
- Average % Bound Mean ± SD (plasma protein [7]; average of 3 concentrations): 92.7 ± 2.36%
- % Bound Mean ± SD (plasma protein [8]; 200 ng/mL): 92.1 ± 1.78%
- % Bound Mean ± SD (plasma protein [8]; 600 ng/mL): 94.8 ± 1.42%
- % Bound Mean ± SD (plasma protein [8]; 5,000 ng/mL): 93.2 ± 0.153%
- Average % Bound Mean ± SD (plasma protein [8]; average of 3 concentrations): 93.4 ± 1.36%
- IC50 (CYP2C8): 19 µM
- % Bound Mean ± SD (plasma protein [9]; 200 ng/mL): 96.8 ± 0.321%
- % Bound Mean ± SD (plasma protein [9]; 600 ng/mL): 97.6 ± 0.153%
- % Bound Mean ± SD (plasma protein [9]; 5,000 ng/mL): 95.2 ± 0.473%
- Average % Bound Mean ± SD (plasma protein [9]; average of 3 concentrations): 96.5 ± 1.22%
- Plasma 18-MC concentration, Average [10, 12]: 11,442 ng/mL
- Plasma 18-MC concentration, individual animals [10, 12]: 3,450 ng/mL and 12,600 ng/mL and 11,300 ng/mL and 13,900 ng/mL and 14,200 ng/mL and 13,200 ng/mL
- Plasma 18-MC concentration, Average ([10]; Dose Day 4, post dose): 7,524 ng/mL
- Plasma 18-MC concentration, individual animals ([10]; Dose Day 4, post dose): 9,030 ng/mL and 3,760 ng/mL and 8,040 ng/mL and 10,500 ng/mL and 6,290 ng/mL
- Plasma 18-MC concentration, Average ([10]; Dose Day 4, pre dose): 2,998 ng/mL
- Plasma 18-MC concentration, individual animals ([10]; Dose Day 4, pre dose): 3,840 ng/mL and 1,680 ng/mL and 3,020 ng/mL and 2,720 ng/mL and 3,730 ng/mL
- IC50 (CYP2D6): > 100 µM
